Entries after “also recorded” stand apart in the source; their conditions may differ.
Tests used:
[1] = system: rats with L5/L6 spinal nerve ligation (SNL); conditions: morphine given alone by the intrathecal route; stated as well known; cited from earlier work
[2] = system: rats with L5/L6 spinal nerve ligation (SNL); assay: thermal hyperalgesia: paw-withdrawal latency to radiant heat, rat L5/L6 spinal nerve ligation (SNL) model; assay type: in vivo; conditions: intrathecal twice daily
Method: (§1) This example describes an evaluation of neuropathic pain in an animal model. An in vivo rat L5/L6 spinal nerve ligation (SNL) study is conducted as described by Kim and Chung (1992). These in vivo experiments to evaluate neuropathic pain with compounds and compositions according to the invention as prescribed herein are conducted on male Sprague-Dawley rats (Harlan; Indianapolis, Ind.) that are 200-225 g at the time of the L5/L6 surgery as described below. The rats are maintained in a climate-controlled room on a 12-h light/dark cycle (lights on at 06:00 h); food and water are provided ad libiturn. The testing is performed in accordance with accepted policies and guidelines for the handling and use of laboratory animals.
In an initial study, the effects of intrathecally delivered morphine and naloxone or morphine alone are tested after ligation of the L5 and L6 spinal nerves in rats. At one week, after a neuropathic pain syndrome of thermal hyperalgesia and tactile allodynia is stabilized, rats receive daily intrathecal injections of vehicle, morphine alone, morphine plus naloxone or naloxone alone for seven days. […] The animals first undergo intrathecal implantation of a catheter that allows for drug delivery at the lumbar (L5) spinal cord region. Animal baseline withdrawals from thermal and tactile stimuli are recorded. Animals then undergo the L5/L6 ligation surgery as described below and are tested for tactile and thermal hypersensitivities, for example, on day 3 through day 7 after the surgery, and then, for example, on day 8, animals begin the twice daily intrathecal administration of vehicle or drug substances in doses as described below. Animals are tested, for example, from about 20 to about 30 minutes after the first daily intrathecal dose for hyperalgesic and anti-allodynia effects for a total of 7 days as described below.
While under halothane anesthesia, an 8 cm length of 32 gauge tubing is inserted in the Sprague-Dawley rats to the level of the lumbar enlargement via an incision made in the atlanto-occipital membrane. The catheter is then secured to the musculature at the site of incision, which is then closed. The rats receive 4.4 mg/kg of gentamycin (intramuscular administration) as a prophylactic precaution and are allowed 5-7 days for recovery before experimentation begins, for example, before L5/L6 ligation surgery begins as described below. […] Intrathecally administered substances are dissolved in saline (to a total volume of 5 μl) prior to administration through a length of tubing connecting the intrathecal catheter with the injection syringe. Progress of the injection is determined by observing the movement of an air bubble through a calibrated length of the tubing. The catheter is cleared by flushing with 9 μl saline.
For these experiments, morphine, when given either as the sole drug or in combination with naltrexone to the rats, is administered to the rats at a dosage ranging from 1-30 micrograms, if given intrathecally. Naltrexone, when given either as the sole drug or in combination with morphine to the rats, is administered to the rats at a dosage ranging from 1 femtogram (fg) to 30 nanograms (ng) if given intrathecally. For other experiments, if given systemically, morphine, when given either as the sole drug or in combination with naltrexone to the rats, is administered to the rats at a dosage ranging from 1 mg/kg to 20 mg/kg. If given systemically, naltrexone, when given either as the sole drug or in combination with morphine to the rats, is administered to the rats at a dosage ranging from 1 femtogram to 300 nanograms. Administration of drug or vehicle to the rat is performed, for example, both on a BID or QID basis. For these experiments, morphine sulfate is purchased from Sigmia (St. Louis, Mo.) and naltrexone hydrochloride is purchased from Tocris (Ellisville, Mo.). These substances are dissolved in sterile 0.9% physiological saline from Baxter (Deerfield, Ill.).

[3] = system: rats with L5/L6 spinal nerve ligation (SNL); assay: tactile allodynia: paw-withdrawal threshold to von Frey filaments, rat L5/L6 spinal nerve ligation (SNL) model; assay type: in vivo; conditions: naltrexone 0.1 ng alone, intrathecal twice daily; initial study
Method: as §1
In an initial study, the effects of intrathecally delivered morphine and naloxone or morphine alone are tested after ligation of the L5 and L6 spinal nerves in rats. […] Animal baseline withdrawals from thermal and tactile stimuli are recorded. […]
While under halothane anesthesia, an 8 cm length of 32 gauge tubing is inserted in the Sprague-Dawley rats to the level of the lumbar enlargement via an incision made in the atlanto-occipital membrane. […] Progress of the injection is determined by observing the movement of an air bubble through a calibrated length of the tubing. […]

SMILES | antiallodynic effect [1] | antihyperalgesia ([2]; morphine 10 μg alone, day 8 after SNL (= Day 1 of administration), initial study) [%] | antihyperalgesia ([2]; morphine 10 μg alone, day 9 after SNL (= Day 2), initial study) [%] | antihyperalgesia (activity) ([2]; morphine 10 μg alone, day 11 after SNL (= Day 4), initial study) [%] | tolerance to the antihyperalgesia effect ([2]; morphine 10 μg alone, initial study (day 11 after SNL = Day 4)) | antihyperalgesia, return to baseline ([2]; morphine 10 μg alone, initial study (day 12 after SNL = Day 5)) | effect on allodynia [3] | effect on antihyperalgesia ([2]; naltrexone 0.1 ng alone, initial study)
CN1CC[C@]23c4c5ccc(O)c4O[C@H]2[C@@H](O)C=C[C@H]3[C@H]1C5 [morphine] | no antiallodynic effect | 65 | 73 | 38 | tolerance to the antihyperalgesia effect by day 11; also recorded: tolerance to the anti-hyperalgesia effect by Day 4 | return to baseline by day 12; also recorded: return to baseline by day 5 | – | –
O=C1CC[C@@]2(O)[C@H]3Cc4ccc(O)c5c4[C@@]2(CCN3CC2CC2)[C@H]1O5 [naltrexone] | – | – | – | – | – | – | no effect | no effect
